Here are results for four compounds from article PMC5504357, “Antifungal Potential of Copper(II), Manganese(II) and Silver(I) 1,10-Phenanthroline Chelates Against Multidrug-Resistant Fungal Species Forming the Candida haemulonii Complex: Impact on the Planktonic and Biofilm Lifestyles” (Frontiers in Microbiology, 2017).

Molecules are shown by their SMILES. Converted amounts (≈) assume the structure as drawn. Where two headings read alike, the source gives them in different places.

Data set [1] can be described thus: Mammalian cell toxicity (MTT assay) and selectivity index. The format is cell-based, Human. The settings on record: human, A549 cells (human lung adenocarcinoma); MTT, 48 h incubation. The essentials: (§1)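 A549 cells were exposed to compounds (0.0313–512 μg/mL) in DMEM for 48 h at 37 °C, 5% CO2. Viability was measured by MTT (3 h, dark), with formazan dissolved in DMSO and read at 450 nm. CC50 was derived, and SI calculated as A549 CC50 divided by C. haemulonii complex GM-MIC.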

Data set [2] relates to Candida haemulonii var. vulnera. In words: Planktonic growth, broth microdilution (CLSI M27-A3), MIC. Format: cell-based. The essentials:
(§2)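 Three clinical isolates per species (nail, blood, urine origin), grown in Sabouraud-dextrose 48 h at 37°C, were tested by CLSI M27-A3 broth microdilution in RPMI 1640 over 0.0625-32 mg/L. After 48 h at 37°C, MIC was the lowest concentration with no visible growth; the across-isolate value is a geometric mean MIC.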

The subject of data set [3] is Candida duobushaemulonii. The description is as above. The format is cell-based. The essentials:
as §2

Data set [4] relates to Candida haemulonii. Described as above. The format is cell-based. The essentials: as §2
The next data set relates to C. haemulonii complex. In words: Planktonic growth, overall across all nine isolates. The settings on record: for MIC: read-out: Overall GM-MIC. The format is cell-based, Candida haemulonii complex. The essentials: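 Following CLSI M27-A3, compounds were serially diluted in RPMI 1640 (0.0625-32 mg/L) and incubated with isolates at 37°C for 48 h. Visual reading gave the MIC as the lowest growth-free concentration, and MICs were pooled as a geometric mean over isolates; inocula came from 48 h Sabouraud-dextrose cultures.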

For data set [5], the system named is Candida haemulonii complex. In words: Biofilm-growing cells, overall across isolates. The format is cell-based. To be noted: geometric mean across strains, values marked * do not include LIP Ch4 (>512). The essentials:
(§3)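 Metabolic activity was read by XTT reduction to formazan. Compounds were added at planktonic-assay concentrations for 48 h at 37 °C to washed 48 h biofilms grown from 10^6 cells in Sabouraud-dextrose broth. bMIC was defined as the minimal concentration inhibiting metabolic activity by 50% relative to untreated wells.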

Data set [6] relates to Candida haemulonii var. vulnera. In words: Biofilm-growing cells, XTT assay, bMIC. The format is cell-based. To be noted: for GM-bMIC: geometric mean, C. haemulonii var. vulnera isolates; for bMIC: mature biofilm, 48 h, 50% inhibition of metabolic activity. The essentials: as §3
Data set [7] deals with Candida duobushaemulonii. In words: Biofilm-growing cells, XTT assay, bMIC. Format: cell-based. The settings on record: for GM-bMIC: geometric mean, C. duobushaemulonii isolates; for bMIC: mature biofilm, 48 h, 50% inhibition of metabolic activity. The essentials:
as §3

Data set [8] has as its system Candida haemulonii. In words: Biofilm-growing cells, XTT assay, bMIC. Format: cell-based. The settings on record: for GM-bMIC: geometric mean, C. haemulonii isolates, values marked * do not include LIP Ch4 (>512); for bMIC: mature biofilm, 48 h, 50% inhibition of metabolic activity. The essentials: as §3
A short description of another data set: Solubility in solvents. The format is physicochemical. To be noted: solvents as named. As to the method:
{[Cu(3,6,9-tdda)(phen)2].3H2O.EtOH}n (7). Step (i): Copper(II) acetate hydrate (1.50 g; 7.51 mmol) was dissolved in ethanol (50 mL) and the solution was added to an ethanolic solution (25 mL) of 3,6,9-trioxaundecanedioic acid (3,6,9-tddaH2) (2.84 g; […]). The light-green suspension was refluxed for 1 h, and after cooling to room temperature the light-green solid, [Cu(3,6,9-tdda)].H2O, was filtered off, washed with cold ethanol and air dried. Yield: 1.88 g (82.97%). % Calculated: C: 31.84, H: 4.68. % Found: C: 32.20, H: 4.60. […] Step (ii): [Cu(3,6,9-tdda)].H2O (1.00 g; 3.31 mmol) and phen (2.39 g; 13.26 mmol) were dissolved together in ethanol (50 mL) and the resulting dark-green mixture was refluxed for 2 h. The suspension was cooled and the green solid, {[Cu(3,6,9-tdda)(phen)2]3H2O.EtOH}n(7), was filtered off, washed with cold ethanol and air dried. Yield: 1.63 g (66.09%). % Calculated: C: 54.87, H: 5.42, N: 7.53. % Found: C: 54.65, H: 5.63, N: 7.39.
[Ag2(3,6,9-tdda)(phen)4].EtOH (16). Step (i): Silver(I) acetate (3.00 g; 17.97 mmol) was dissolved in ethanol (30 mL) and the solution was added to an ethanolic solution (25 mL) of 3,6,9-trioxaundecanedioic acid (3,6,9-tddaH2) (2.84 g; 8.95 mmol) and the orange-brown suspension refluxed for 3 h. […] Green [Ag2(3,6,9-tdda)(phen)4].EtOH (16) precipitated and was filtered off, washed with cold ethanol and air dried. Yield: 0.83 g (65.10%). % Calculated: C: 57.92, H: 4.19, N: 9.32. % Found: C: 57.75, H: […], N: 9.02. IR (KBr) νmax: 3380, 3046, 2905, 1978, 1804, 1618, 1585, 1509, 1421, 1322, 1263, 1215, 1121, 1077, 1018, 932, 890, 838, 726, 621, 465, 413 cm^−1. ^1H NMR (500 MHz, DMSO-d6, 313 K, TMS) δ = 9.12(8H, s), 8.63 (8H, d), 8.08 (8H, s), 7.91 (8H, dd), 3.74 (4H, s), 3.57 (8H, dd). ^13C NMR (125 MHz, DMSO-d6, 313 K, TMS) δ = 173.41, 151.28, 143.57, 138.03, 129.24, 127.37, 124.74, 71.44, 70.42, 69.74.

Another data set relates to A549 cells. The data set is described as follows: Mammalian cell toxicity (MTT assay) and selectivity index. The settings on record: MTT, 48 h incubation. Format: cell-based, Human. The essentials: as §1

As to `c1cnc2c(c1)ccc1cccnc12` [phen, 1,10-phenanthroline], in data set [1], it took 4.3 µg/mL (≈ 23.9 µM) to reach half-maximal cytotoxicity (CC50 at 48 h). The MIC in data set [2] (Candidozyma haemuli, 48 h, isolate LIP Ch5, planktonic, 48 h, 37°C, read-out: MIC) turned out to be 1 µg/mL (≈ 5.55 µM); in data set [2] (Candidozyma haemuli, 48 h, isolate LIP Ch9, planktonic, 48 h, 37°C, read-out: MIC), 1 µg/mL (≈ 5.55 µM); in [2] (Candidozyma haemuli, 48 h, isolate LIP Ch11, planktonic, 48 h, 37°C, read-out: MIC), 0.5 µg/mL (≈ 2.77 µM); in [2] (Candidozyma haemuli, geometric mean of three C. haemulonii var. vulnera isolates, read-out: GM-MIC), 0.79 µg/mL (≈ 4.38 µM); in the data set with Candida duobushaemulonii [3] (Candidozyma duobushaemuli, 48 h, isolate LIP Ch1, planktonic, 48 h, 37°C, read-out: MIC), 1 µg/mL (≈ 5.55 µM); in the data set with Candida duobushaemulonii [3] (Candidozyma duobushaemuli, 48 h, isolate LIP Ch6, planktonic, 48 h, 37°C, read-out: MIC), 1 µg/mL (≈ 5.55 µM). Besides, the MIC in the data set on Candida duobushaemulonii [3] (Candidozyma duobushaemuli, 48 h, isolate LIP Ch8, planktonic, 48 h, 37°C, read-out: MIC) came out at 1 µg/mL (≈ 5.55 µM); in the data set with Candida duobushaemulonii [3] (Candidozyma duobushaemuli, geometric mean of three C. duobushaemulonii isolates, read-out: GM-MIC), 1 µg/mL (≈ 5.55 µM); in the data set on Candida haemulonii [4] (Candidozyma haemuli, 48 h, isolate LIP Ch4, planktonic, 48 h, 37°C, read-out: MIC), 1 µg/mL (≈ 5.55 µM); with Candida haemulonii [4] (Candidozyma haemuli, 48 h, isolate LIP Ch7, planktonic, 48 h, 37°C, read-out: MIC) it was 1 µg/mL (≈ 5.55 µM); in the data set with Candida haemulonii [4] (Candidozyma haemuli, 48 h, isolate LIP Ch12, planktonic, 48 h, 37°C, read-out: MIC), 1 µg/mL (≈ 5.55 µM); in the data set on Candida haemulonii [4] (Candidozyma haemuli, geometric mean of three C. haemulonii isolates, read-out: GM-MIC), 1 µg/mL (≈ 5.55 µM). The minimal inhibitory concentration (MIC) in the data set on C. haemulonii complex (Candidozyma haemuli, geometric mean across all nine strains, in μM) turned out to be 5.16 µM; in the data set with C. haemulonii complex (Candidozyma haemuli, geometric mean across all nine strains), 0.93 µg/mL. Besides, the “effect on planktonic fungal growth/viability (in words)” value in the data set with C. haemulonii complex (nine clinical isolates, 0.0625-32 mg/L) is on record as “appreciably deterred fungal growth”. Also, the “activity of metal-free phen relative to phendione” value in the data set on C. haemulonii complex (planktonic, more active than phendione) is on record as ~ 2 fold. The “Overall GM-bMIC” value in [5] (in μM) was found to be 27.96 µM; in [5], 5.04 mg/L. For the same compound, the GM-bMIC is listed as 10.08 mg/L in data set [6], 1 mg/L in the data set with Candida duobushaemulonii [7] and 12.70 mg/L in the data set on Candida haemulonii [8]. Also, the bMIC in data set [6] (isolate LIP Ch5) is recorded as 4 mg/L; in data set [6] (isolate LIP Ch9), 32 mg/L; in data set [6] (isolate LIP Ch13) it was 8 mg/L; with Candida duobushaemulonii [7] (isolate LIP Ch1) it was 1 mg/L; in the data set on Candida duobushaemulonii [7] (isolate LIP Ch6) it was 1 mg/L; with Candida duobushaemulonii [7] (isolate LIP Ch8), 1 mg/L. The bMIC in the data set on Candida haemulonii [8] (isolate LIP Ch4) is 512 mg/L; in the data set on Candida haemulonii [8] (isolate LIP Ch7), 2 mg/L; in the data set on Candida haemulonii [8] (isolate LIP Ch14), 2 mg/L.

In the case of `O.O.O=C([O-])COCCOCCOCC(=O)[O-].[Ag+].[Ag+]` [[Ag2(3,6,9-tdda].2H2O], the Solubility result in the data set “Solubility in solvents” was “soluble in hot H2O and hot DMSO”.

As to `O.O=C([O-])COCCOCCOCC(=O)[O-].[Cu+2]` [[Cu(3,6,9-tdda)].H2O], in the data set “Solubility in solvents”, the Solubility entry is “soluble in H2O, MeOH, EtOH and insoluble in CHCl3, ethyl acetate and acetone”.

For the compound `O.O.O.O.O.O.O=C([O-])CCCCCCC(=O)[O-].O=C([O-])CCCCCCC(=O)[O-].O=C([O-])CCCCCCC(=O)[O-].O=C([O-])CCCCCCC(=O)[O-].[Mn+2].[Mn+2].[Mn+2].[Mn+2].c1cnc2c(c1)ccc1cccnc12.c1cnc2c(c1)ccc1cccnc12.c1cnc2c(c1)ccc1cccnc12.c1cnc2c(c1)ccc1cccnc12.c1cnc2c(c1)ccc1cccnc12.c1cnc2c(c1)ccc1cccnc12.c1cnc2c(c1)ccc1cccnc12.c1cnc2c(c1)ccc1cccnc12` [compound 13, [Mn2(oda)(phen)4(H2O)2][Mn2(oda)(phen)4(oda)2].4H2O], in the data set with A549 cells, the “A549 (CC50)” value is recorded as more than 512 mg/L. For the same compound, the GM-MIC in data set [2] (geometric mean of three C. haemulonii var. vulnera isolates) is 2 mg/L; with Candida duobushaemulonii [3] (geometric mean of three C. duobushaemulonii isolates), 2.52 mg/L; in the data set with Candida haemulonii [4] (geometric mean of three C. haemulonii isolates), 2 mg/L. Also, the MIC in data set [2] (isolate LIP Ch5, planktonic, 48 h, 37°C) is 2 µg/mL; in data set [2] (isolate LIP Ch9, planktonic, 48 h, 37°C), 2 µg/mL; in data set [2] (isolate LIP Ch11, planktonic, 48 h, 37°C) it was 2 µg/mL; against Candida duobushaemulonii [3] (isolate LIP Ch1, planktonic, 48 h, 37°C), 2 µg/mL; against Candida duobushaemulonii [3] (isolate LIP Ch6, planktonic, 48 h, 37°C), 4 µg/mL; in the data set with Candida duobushaemulonii [3] (isolate LIP Ch8, planktonic, 48 h, 37°C), 2 µg/mL. In addition, the MIC amounted to 2 µg/mL with Candida haemulonii [4] (isolate LIP Ch4, planktonic, 48 h, 37°C); 2 µg/mL against Candida haemulonii [4] (isolate LIP Ch7, planktonic, 48 h, 37°C); 2 µg/mL in the data set with Candida haemulonii [4] (isolate LIP Ch12, planktonic, 48 h, 37°C); 0.87 µM in the data set with C. haemulonii complex (geometric mean across all nine strains, in μM). In the data set on C. haemulonii complex (geometric mean across all nine strains), the “Overall GM-MIC” value is on record as 2.16 mg/L. For the same compound, in data set [5], the “Overall GM-bMIC” value stood at 8.72 mg/L. Moreover, the GM-bMIC in data set [6] is listed as 8 mg/L; in the data set on Candida duobushaemulonii [7], 5.04 mg/L; in the data set with Candida haemulonii [8] it was 22.63^* mg/L. The bMIC in data set [6] (isolate LIP Ch5) is recorded as 16 mg/L; in data set [6] (isolate LIP Ch9), 4 mg/L; in data set [6] (isolate LIP Ch13), 8 mg/L; in the data set on Candida duobushaemulonii [7] (isolate LIP Ch1), 4 mg/L; in the data set on Candida duobushaemulonii [7] (isolate LIP Ch6), 4 mg/L; in the data set on Candida duobushaemulonii [7] (isolate LIP Ch8), 8 mg/L. The bMIC in the data set with Candida haemulonii [8] (isolate LIP Ch4) is reported as more than 512 mg/L; in the data set on Candida haemulonii [8] (isolate LIP Ch7), 32 mg/L; with Candida haemulonii [8] (isolate LIP Ch14), 16 mg/L.
